Counter-ions that a name gives are not always drawn. Like-named read-outs stand apart in the source and are kept apart here.
What was measured:
[1] = test system: Salmonella typhimurium UC6164; assay: standard mouse challenge test against Salmonella typhimurium UC6164 (survival, ED50); format: in vivo; details: for ED50: mice, s.c., adjusted for drug potency, 95% confidence limits
Experimental: (§1) Each test compound was suspended or dissolved in sterile Vehicle 122 (0.025% carboxymethylcellulose in water) to a starting test concentration sufficient to provide in the first set of test animals a concentration of the test drug of 2 mg./kg. Portions of each such test drug formulation were diluted seriatim 50:50 v/v with water to reduce the concentration of the test drug in the test animal to 1 mg./kg., then to 0.5 mg./kg., to 0.25 mg./kg. and finally to 0.125 mg./kg. Sets of mice were injected with the test dilutions of the test drugs subcutaneously once or three times after injecting challenge doses lethal doses of one of the above-named bacterial organisms. The sets of animals were observed over six days to determine the number of surviving mice. The mortality ratios were noted and the ED50 values were calculated for each test drug by standard methods.

[2] = test system: Pasteurella multocida UC9581; assay: standard mouse challenge test against Pasteurella multocida UC9581 (survival, ED50); format: in vivo; details: for ED50: mice, s.c., adjusted for drug potency, 95% confidence limits
Experimental: as §1

[3] = dissolution rate in water; format: physicochemical; details: for percent in aqueous solution in 20 minutes: ceftiofur hydrochloride unmicronized
bulk density = format: physicochemical
[4] = dispersibility in water, organic solvents and vegetable oils; format: physicochemical; details: in words
[5] = mouse challenge, in words, from ED50 numbers of Table I
[6] = 20 minutes, comparable equilibration conditions
[7] = zinc ceftiofur hydrochloride vs. non-complexed hydrochloride salt

Compound | ED50 ([1]; UC6164, 579 LD50's, 1X treatment, 8640 min) [mg/kg/day] | ED50 ([1]; UC6164, 1000 LD50's, 1X treatment, 8640 min) [mg/kg/day] | ED50 ([1]; UC6164, 1000 LD50's, 3X treatments, 8640 min) [mg/kg/day] | antibiotic protection [1, 5] | ED50 ([2]; UC9581, 27 LD50's, 3X treatments, 8640 min) [mg/kg/day] | ED50 ([2]; UC9581, 303 LD50's, 1X treatment, 8640 min) [mg/kg/day] | antibiotic protection [2, 5] | percent in aqueous solution in 20 minutes [3, 6] [%] | rate of dissolution ([3]; in words, compared to ceftiofur hydrochloride) | bulk density (bulk density; [7]) | dispersibility in water and in common pharmaceutical organic solvents and vegetable oils ([4]; granular powders) | ED50 ([1]; Salmonella enterica, sc, 144 h, UC6164, 579 LD50's, 1X treatment, read-out: ED50) [mg/kg] | ED50 ([1]; Salmonella enterica, sc, 144 h, UC6164, 1000 LD50's, 1X treatment, read-out: ED50) [mg/kg] | ED50 ([1]; Salmonella enterica, sc, 144 h, UC6164, 1000 LD50's, 3X treatments, read-out: ED50) [mg/kg] | ED50 ([2]; Pasteurella multocida, sc, 144 h, UC9581, 27 LD50's, 3X treatments, read-out: ED50) [mg/kg] | distribution in pharmaceutical aqueous vehicle formulations [4] | ED50 ([1]; UC6164, 1000 LD50's, 1X treatment, 8640 min, listed as C--Na) [mg/kg/day] | solubility in water after 20 minutes ([3]; 20 minutes, comparable equilibration conditions, zinc complex unmicronized) [%] | dissolution rate curves (percent dissolved over time) ([3]; in words, compared with sodium ceftiofur and ceftiofur hydrochloride) | bulk density (bulk density; zinc ceftiofur sodium complex from water vs. ceftiofur sodium salt) [g/mL]
zinc ceftiofur hydrochloride complex [Compound II] | 1.0 | 3.3 | 2.1 | potent antibiotic protection | 0.4 | 0.3 | potent antibiotic protection | 48 | much slower compared to ceftiofur hydrochloride | about 0.24 g./ml. | readily dispersible in water | – | – | – | – | – | – | – | – | –
CO/N=C(\C(=O)N[C@@H]1C(=O)N2C(C(=O)O)=C(CSC(=O)c3ccco3)CS[C@H]12)c1csc(N)n1 [ceftiofur hydrochloride] | – | – | – | – | – | – | – | 74 | – | 0.15 g/mL | – | 1.7 | 1.3 | 2.3 | 0.3 | less well adapted for distribution in pharmaceutical aqueous vehicle formulations | – | – | – | –
CO/N=C(\C(=O)N[C@@H]1C(=O)N2C(C(=O)O)=C(CSC(=O)c3ccco3)CS[C@H]12)c1csc(N)n1 [ceftiofur sodium] | – | – | – | – | – | – | – | – | – | – | – | – | – | – | – | – | 1.1 | 100 | dissolves quite quickly in water | 0.11
